Data published in patent publication US20090042964A1, “AMINO-5-[SUBSTITUTED-4-(DIFLUOROMETHOXY)PHENYL]-5-PHENYLIMIDAZOLONE COMPOUNDS AS BETA-SECRETASE INHIBITORS” (Wyeth, priority 2007, published 2009).

Molecular target: human BACE1 (Homo sapiens, UniProt P56817)
Test: Fluorescent kinetic assay, evaluation of BACE1 binding affinity of test compounds
Assay type: biochemical
Details: 10 nM human BACE1, 25 μM substrate WABC-6, pH 4.5, room temperature; read-out: BACE1 IC50
Description: Concentration is determined by absorbance at 354 nm using an extinction coefficient of 18172 M^-1 cm^-1, the concentration of stock substrate is corrected, and the substrate stock stored in small aliquots in -80° C. […] Determination of Stock Enzyme Concentration: the stock concentration of each enzyme is determined by absorbance at 280 nm using an of 64150 M^-1 cm^-1 for hBACE1 and MuBACE1, 62870 M^-1 cm^-1 for hBACE2 in 6 M Guanidinium Hydrochloride (from Research Organics, Cat. # 5134G-2), pH 6. […] Biochem. 182, 319-326). Dilution and mixing steps: total reaction volume: 100 μL 2× inhibitor dilutions in buffer A (66.7 mM Na-Acetate, pH 4.5, 0.0667% CHAPS) were prepared, 4× enzyme dilution in buffer A (66.7 mM Na-Acetate, pH 4.5, 0.0667% CHAPS) were prepared, 100 μM substrate dilution in 1×PBS was prepared, and 50 μL 2× Inhibitor, 25 μL 100 μM substrate are added to each well of 96-well plate (from DYNEX Technologies, VWR #: 11311-046), immediately followed by 25 μL 4× enzyme (added to the inhibitor and substrate mix), and the fluorescence readings are initiated.

Chain of human BACE1 (P56817 46-501): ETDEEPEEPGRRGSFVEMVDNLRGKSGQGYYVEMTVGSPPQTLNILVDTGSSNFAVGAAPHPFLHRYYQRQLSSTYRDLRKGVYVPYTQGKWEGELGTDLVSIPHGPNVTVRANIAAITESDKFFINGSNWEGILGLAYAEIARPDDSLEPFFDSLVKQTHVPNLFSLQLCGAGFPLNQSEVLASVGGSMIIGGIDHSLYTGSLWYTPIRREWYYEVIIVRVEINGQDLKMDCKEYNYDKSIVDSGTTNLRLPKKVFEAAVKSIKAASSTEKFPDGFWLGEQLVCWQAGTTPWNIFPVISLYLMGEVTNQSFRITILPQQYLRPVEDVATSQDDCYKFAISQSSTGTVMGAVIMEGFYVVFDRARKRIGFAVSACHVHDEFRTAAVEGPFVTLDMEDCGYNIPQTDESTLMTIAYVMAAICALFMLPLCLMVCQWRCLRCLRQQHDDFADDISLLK

IC50 [µM] | SMILES
0.11 to 1 | COCCC#Cc1cccc([C@]2(c3ccc(OC(F)F)c(C4CC4)c3)N=C(N)N(C)C2=O)c1 (single isomer, unassigned) [Example 184]
< 0.1 | COCCC#Cc1cccc([C@@]2(c3ccc(OC(F)F)c(C4CC4)c3)N=C(N)N(C)C2=O)c1 (single isomer, unassigned) [Example 185]
0.11 to 1 | CN1C(=O)[C@@](c2cccc(C#CCCCO)c2)(c2ccc(OC(F)F)c(C3CC3)c2)N=C1N (single isomer, unassigned) [Example 189]
< 0.1 | CN1C(=O)[C@](c2cccc(C#CCCCO)c2)(c2ccc(OC(F)F)c(C3CC3)c2)N=C1N (single isomer, unassigned) [Example 190]
< 0.1 | CN1C(=O)[C@](c2cccc(C#CCCCF)c2)(c2ccc(OC(F)F)c(C3CC3)c2)N=C1N (single isomer, unassigned) [Example 192]
0.11 to 1 | CN1C(=O)[C@@](c2cccc(C#CCCCF)c2)(c2ccc(OC(F)F)c(C3CC3)c2)N=C1N (single isomer, unassigned) [Example 193]
< 0.1 | CCCOc1cc(C2(c3ccc(OC(F)F)c(C)c3)N=C(N)N(C)C2=O)ccc1F (stereo in doubt) [Example 116, (5S)-2-Amino-5-[4-(difluoromethoxy)-3-methylphenyl]-5-(4-fluoro-3-propoxyphenyl)-3-methyl-3,5-dihydro-4H-imidazol-4-one]
< 0.1 | CCc1cc(C2(c3ccc(F)c(OCCCF)c3)N=C(N)N(C)C2=O)ccc1OC(F)F (stereo in doubt) [Example 122, (5S)-2-Amino-5-[4-(difluoromethoxy)-3-ethylphenyl]-5-[4-fluoro-3-(3-fluoropropoxy)phenyl]-3-methyl-3,5-dihydro-4H-imidazol-4-one]
0.11 to 1 | Cc1cc(C2(c3ccc(F)cc3)N=C(N)N(C)C2=O)ccc1OC(F)F (stereo not drawn) [Example 3, 2-Amino-4-(4-(difluoromethoxy)-3-methylphenyl)-4-(4-fluorophenyl)-1-methyl-1H-imidazol-5(4H)-one]
> 1 | Cc1cc([C@]2(c3ccc(F)cc3)N=C(N)N(C)C2=O)ccc1OC(F)F [Example 4A, (5S)-2-Amino-4-(4-(difluoromethoxy)-3-methylphenyl)-4-(4-fluorophenyl)-1-methyl-1H-imidazol-5(4H)-one]
0.11 to 1 | Cc1cc([C@@]2(c3ccc(F)cc3)N=C(N)N(C)C2=O)ccc1OC(F)F [Example 4B, (5R)-2-Amino-4-(4-(difluoromethoxy)-3-methylphenyl)-4-(4-fluorophenyl)-1-methyl-1H-imidazol-5(4H)-one]

SMILES | IC50 [µM]
CC(C)c1cc(C2(c3ccccc3)N=C(N)N(C)C2=O)ccc1OC(F)F (stereo in doubt) [Example 138, (5R)-2-Amino-5-[4-(difluoromethoxy)-3-isopropylphenyl]-3-methyl-5-phenyl-3,5-dihydro-4H-imidazol-4-one] | < 0.1
CC(C)c1cc(C2(c3ccccc3)N=C(N)N(C)C2=O)ccc1OC(F)F (stereo in doubt) [Example 139, (5S)-2-Amino-5-[4-(difluoromethoxy)-3-isopropylphenyl]-3-methyl-5-phenyl-3,5-dihydro-4H-imidazol-4-one] | > 1
CCCCOc1cccc(C2(c3ccc(OC(F)F)c(Cl)c3)N=C(N)N(C)C2=O)c1 (stereo not drawn) [Example 35, 2-Amino-5-(3-butoxyphenyl)-5-[3-chloro-4-(difluoromethoxy)-phenyl]-3-methyl-3,5-dihydro-4H-imidazol-4-one] | < 0.1

Same assay, conditions: BACE1 IC50 μM, 10 nM human BACE1, 25 μM substrate WABC-6, pH 4.5, room temperature

SMILES | IC50 [µM]
Cc1cc(C2(c3ccccc3)N=C(N)N(C)C2=O)cc(C)c1OC(F)F (stereo not drawn) [Example 5, 2-Amino-5-[4-(difluoromethoxy)-3,5-dimethylphenyl]-3-methyl-5-phenyl-3,5-dihydro-4H-imidazol-4-one] | 0.11 to 1
CCc1cc(C2(c3ccccc3)N=C(N)N(C)C2=O)ccc1OC(F)F (stereo not drawn) [Example 6, 2-Amino-5-[4-(difluoromethoxy)-3-ethylphenyl]-3-methyl-5-phenyl-3,5-dihydro-4H-imidazol-4-one] | 0.11 to 1
CCc1cc(C2(c3ccc(F)cc3)N=C(N)N(C)C2=O)ccc1OC(F)F (stereo not drawn) [Example 7, 2-Amino-4-[4-(difluoromethoxy)-3-ethylphenyl]-4-(4-fluorophenyl)-1-methyl-1H-imidazol-5(4H)-one] | 0.11 to 1
CCCc1cc(C2(c3ccccc3)N=C(N)N(C)C2=O)ccc1OC(F)F (stereo not drawn) [Example 8, 2-Amino-5-[4-(difluoromethoxy)-3-propylphenyl]-3-methyl-5-phenyl-3,5-dihydro-4H-imidazol-4-one] | 0.11 to 1
CN1C(=O)C(c2ccccc2)(c2ccc(OC(F)F)c(C3CC3)c2)N=C1N (stereo not drawn) [Example 10, 2-Amino-5-[3-cyclopropyl-4-(difluoromethoxy)phenyl]-3-methyl-5-phenyl-3,5-dihydro-4H-imidazol-4-one] | < 0.1
C=Cc1cc(C2(c3ccccc3)N=C(N)N(C)C2=O)ccc1OC(F)F (stereo not drawn) [Example 11, 2-Amino-5-[4-(difluoromethoxy)-3-vinylphenyl)-3-methyl-5-phenyl-3,5-dihydro-4H-imidazol-4-one] | 0.11 to 1
CN1C(=O)C(c2ccccc2)(c2ccc(OC(F)F)c(C(F)(F)F)c2)N=C1N (stereo not drawn) [Example 12, 2-Amino-5-[4-(difluoromethoxy)-3-(trifluoromethyl)phenyl]-3-methyl-5-phenyl-3,5-dihydro-4H-imidazol-4-one] | 0.11 to 1
CN1C(=O)C(c2ccccc2)(c2ccc(OC(F)F)c(CF)c2)N=C1N (stereo not drawn) [Example 13, 2-Amino-5-[4-(difluoromethoxy)-3-(fluoromethyl)phenyl]-3-methyl-5-phenyl-3,5-dihydro-4H-imidazol-4-one] | 0.11 to 1
COc1cc(C2(c3ccccc3)N=C(N)N(C)C2=O)ccc1OC(F)F (stereo not drawn) [Example 15, 2-Amino-5-[4-(difluoromethoxy)-3-methoxyphenyl]-3-methyl-5-phenyl-3,5-dihydro-4H-imidazol-4-one] | 0.11 to 1
CN1C(=O)C(c2ccccc2)(c2ccc(OC(F)F)c(F)c2)N=C1N (stereo not drawn) [Example 17, 2-Amino-5-[4-(difluoromethoxy)-3-fluorophenyl]-3-methyl-5-phenyl-3,5-dihydro-4H-imidazol-4-one] | 0.11 to 1
Cc1cc(C2(c3ccc(OC(F)F)c(C)c3)N=C(N)N(C)C2=O)ccc1F (stereo not drawn) [Example 20, 2-Amino-5-[4-(difluoromethoxy)-3-methylphenyl]-5-(4-fluoro-3-methylphenyl)-3-methyl-3,5-dihydro-4H-imidazol-4-one] | 0.11 to 1
COc1ccc(C2(c3ccc(OC(F)F)c(C)c3)N=C(N)N(C)C2=O)cc1C#N (stereo not drawn) [Example 21, 5-{2-Amino-4-[4-(difluoromethoxy)-3-methylphenyl]-1-methyl-5-oxo-4,5-dihydro-1H-imidazol-4-yl}-2-methoxybenzonitrile] | 0.11 to 1
Cc1cc(C2(c3ccc(F)c(CF)c3)N=C(N)N(C)C2=O)ccc1OC(F)F (stereo not drawn) [Example 22, 2-Amino-5-[4-(difluoromethoxy)-3-methylphenyl]-5-[4-fluoro-3-(fluoromethyl)phenyl]-3-methyl-3,5-dihydro-4H-imidazol-4-one] | 0.11 to 1
CCc1cc([C@]2(c3ccccc3)N=C(N)N(C)C2=O)ccc1OC(F)F [Example 23, (5S)-2-Amino-4-[4-(difluoromethoxy)-3-ethylphenyl]-1-methyl-4-phenyl-1H-imidazol-5(4H)-one] | < 0.1
CCc1cc([C@@]2(c3ccccc3)N=C(N)N(C)C2=O)ccc1OC(F)F [Example 24, (5R)-2-Amino-4-[4-(difluoromethoxy)-3-ethylphenyl]-1-methyl-4-phenyl-1H-imidazol-5(4H)-one] | > 1
CN1C(=O)[C@](c2ccccc2)(c2ccc(OC(F)F)c(Cl)c2)N=C1N [Example 27, (5S)-2-Amino-5-[3-chloro-4-(difluoromethoxy)phenyl]-1-methyl-5-phenyl-3,5-dihydro-4H-imidazol-4-one] | 0.11 to 1
CN1C(=O)[C@@](c2ccccc2)(c2ccc(OC(F)F)c(Cl)c2)N=C1N [Example 28, (5R)-2-Amino-5-[3-chloro-4-(difluoromethoxy)phenyl]-1-methyl-5-phenyl-3,5-dihydro-4H-imidazol-4-one] | > 1
Cc1cc(C2(c3ccc(F)c(Br)c3)N=C(N)N(C)C2=O)ccc1OC(F)F (stereo not drawn) [Example 31] | 0.11 to 1
Cc1cc(C2(c3ccc(F)c(Br)c3)N=C(N)N(C)C2=O)ccc1OC(F)F (stereo not drawn) [Example 32] | < 0.1
C=Cc1cc([C@@]2(c3ccccc3)N=C(N)N(C)C2=O)ccc1OC(F)F [Example 33, (5R)-2-Amino-5-[4-(difluoromethoxy)-3-vinylphenyl]-3-methyl-5-phenyl-3,5-dihydro-4H-imidazol-4-one] | < 0.1
C=Cc1cc([C@]2(c3ccccc3)N=C(N)N(C)C2=O)ccc1OC(F)F [Example 34, (5S)-2-Amino-5-[4-(difluoromethoxy)-3-vinylphenyl]-3-methyl-5-phenyl-3,5-dihydro-4H-imidazol-4-one] | > 1

Same assay, conditions: read-out: BACE1 IC50 μM; 10 nM human BACE1, 25 μM substrate WABC-6, pH 4.5, room temperature

SMILES | IC50 [µM]
CC(C)c1cc(C2(c3ccccc3)N=C(N)N(C)C2=O)ccc1OC(F)F (stereo not drawn) [Example 9, 2-Amino-5-[4-(difluoromethoxy)-3-isopropylphenyl]-3-methyl-5-phenyl-3,5-dihydro-4H-imidazol-4-one] | 0.11 to 1
